What was measured:
Format in all cases: in vivo
[1] = system: Spring Barley “Harrington”; assay: Test 1B glasshouse assay, post-emergence herbicidal activity against cereal crops; conditions: for Post-emergence herbicidal activity against cereal crops, percentage phytotoxicity, Spring Barley “Harrington”: 14 DAA
Method in brief: (§1)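 Technical compound in IF50 with acetone, diluted into 0.5% v/v Adigor, sprayed post-emergence on 14-day glasshouse plants (22/16 °C, 16 h light, 65% humidity), typically at 60, 90 or 120 g/ha, with or without 50 g/ha cloquintocet-mexyl safener. Phytotoxicity scored visually 14 DAA (0–100%), mean of two replicates.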

Spring Wheat “Teal” = assay: as above; conditions: 14 DAA
Method in brief: as §1

Spring Wheat “Freya” = assay: as above
Avena fatua (AVEFA) = assay: Test 1A glasshouse assay, post-emergence herbicidal activity; conditions: Avena fatua, 312 h, application rate 250 g/ha, 13 days after application, visual (100%=total damage; 0%=no damage), read-out: Post-emergence Herbicidal Activity (% Phytotoxicity) AVEFA
Method in brief: (§2)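 Read-out is visual percent phytotoxicity 13 days post-spray, 100% meaning total plant damage and 0% none. Seedlings were treated after 8 days' glasshouse cultivation with an aqueous spray of active ingredient in acetone/water 50:50 plus 0.5% Tween 20.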

Lolium perenne (LOLPE) = assay: as above; conditions: Lolium perenne, 312 h, application rate 250 g/ha, 13 days after application, visual (100%=total damage; 0%=no damage), read-out: Post-emergence Herbicidal Activity (% Phytotoxicity) LOLPE
Method in brief: as §2

[2] = system: Alopecurus myosuroides (ALOMY); assay: as above; conditions: Alopecurus myosuroides, 312 h, application rate 250 g/ha, 13 days after application, visual (100%=total damage; 0%=no damage), read-out: Post-emergence Herbicidal Activity (% Phytotoxicity) ALOMY
Method in brief: as §2

[3] = system: Echinochloa crus-galli (ECHCG); assay: as above; conditions: Echinochloa crus-galli, 312 h, application rate 250 g/ha, 13 days after application, visual (100%=total damage; 0%=no damage), read-out: Post-emergence Herbicidal Activity (% Phytotoxicity) ECHCG
Method in brief: as §2

[4] = 30 g/ha herbicide, 50 g/ha cloquintocet-mexyl
[5] = 45 g/ha herbicide, 50 g/ha cloquintocet-mexyl
[6] = 60 g/ha herbicide, 0 g/ha cloquintocet-mexyl
[7] = 60 g/ha herbicide, 50 g/ha cloquintocet-mexyl
[8] = herbicide 30 g/ha, cloquintocet-mexyl 50 g/ha
[9] = herbicide 60 g/ha, cloquintocet-mexyl 0 g/ha
[10] = herbicide 60 g/ha, cloquintocet-mexyl 50 g/ha
[11] = herbicide 45 g/ha, cloquintocet-mexyl 50 g/ha

Cc1cc(C)c(C2C(=O)CC(CCNC(=O)c3cccc(F)n3)C2=O)c(C)c1 (racemic) [Compound A89]
Post-emergence herbicidal activity against cereal crops, percentage phytotoxicity, Spring Barley “Harrington” [1, 4]: 13%
Post-emergence herbicidal activity against cereal crops, percentage phytotoxicity, Spring Barley “Harrington” [1, 5]: 55%
Post-emergence herbicidal activity against cereal crops, percentage phytotoxicity, Spring Barley “Harrington” [1, 6]: 95%
Post-emergence herbicidal activity against cereal crops, percentage phytotoxicity, Spring Barley “Harrington” [1, 7]: 85%
Percentage Phytotoxicity Spring Barley “Harrington” [1, 8]: 13%
Percentage Phytotoxicity Spring Barley “Harrington” [1, 9]: 88%
Percentage Phytotoxicity Spring Barley “Harrington” [1, 10]: 43%
Post-emergence herbicidal activity against cereal crops, percentage phytotoxicity, Spring Wheat “Teal” (Spring Wheat “Teal”; [4]): 13%
Post-emergence herbicidal activity against cereal crops, percentage phytotoxicity, Spring Wheat “Teal” (Spring Wheat “Teal”; [5]): 20%
Post-emergence herbicidal activity against cereal crops, percentage phytotoxicity, Spring Wheat “Teal” (Spring Wheat “Teal”; [6]): 75%
Post-emergence herbicidal activity against cereal crops, percentage phytotoxicity, Spring Wheat “Teal” (Spring Wheat “Teal”; [7]): 50%
Percentage Phytotoxicity Spring Wheat “Freya” (Spring Wheat “Freya”; [8]): 13%
Percentage Phytotoxicity Spring Wheat “Freya” (Spring Wheat “Freya”; [9]): 70%
Percentage Phytotoxicity Spring Wheat “Freya” (Spring Wheat “Freya”; [10]): 38%
pest or weed control at 250 g/ha (Avena fatua (AVEFA)): 100%
pest or weed control at 250 g/ha (Lolium perenne (LOLPE)): 100%
pest or weed control at 250 g/ha [2]: 100%
pest or weed control at 250 g/ha [3]: 100%

Cc1cc(C)c(C2C(=O)CC(CCNC(=O)c3ccc(Br)cn3)C2=O)c(C)c1 (racemic) [Compound A120, 5-bromo-N-{2-[2,4-dioxo-3-(2,4,6-trimethylphenyl)cyclopentyl]ethyl}pyridine-2-carboxamide]
Percentage Phytotoxicity Spring Barley “Harrington” [1, 8]: 25%
Percentage Phytotoxicity Spring Barley “Harrington” [1, 11]: 38%
Percentage Phytotoxicity Spring Barley “Harrington” [1, 9]: 78%
Percentage Phytotoxicity Spring Barley “Harrington” [1, 10]: 38%
Percentage Phytotoxicity Spring Wheat “Freya” (Spring Wheat “Freya”; [8]): 18%
Percentage Phytotoxicity Spring Wheat “Freya” (Spring Wheat “Freya”; [11]): 30%
Percentage Phytotoxicity Spring Wheat “Freya” (Spring Wheat “Freya”; [9]): 55%
Percentage Phytotoxicity Spring Wheat “Freya” (Spring Wheat “Freya”; [10]): 30%
pest or weed control at 250 g/ha (Avena fatua (AVEFA)): 90%
pest or weed control at 250 g/ha (Lolium perenne (LOLPE)): 100%
pest or weed control at 250 g/ha [2]: 100%
pest or weed control at 250 g/ha [3]: 100%

— US9808003B2, “Herbicidally active 2-(substituted-phenyl)-cyclopentane-1,3-dione compounds and derivatives thereof” (Syngenta Limited, priority 2013, dated 2017)
